The record followed here is ChEMBL document CHEMBL3228035, “Deoxymorphines: role of the phenolic hydroxyl in antinociception and opiate receptor interactions” (J Med Chem, 1979).

Where a name gives a salt, the structure may show the parent alone.

Experiment [1] concerns Mus musculus. Nature of the experiment: Antinociceptive activity in sc dosed mouse by Nilsen assay. The format is functional.
For experiment [2], the system named is Mus musculus. Nature of the experiment: Antinociceptive activity in sc dosed mouse by hot-plate assay. The class given is functional.

For the molecule `CN1CC[C@]23CCCC[C@H]2[C@H]1Cc1ccc(O)cc13`, the median effective dose (ED50) in the experiment with Mus musculus [1] and with Mus musculus [2] was 0.5 µmol/kg throughout.
For the molecule `CN1CC[C@]23c4c5ccc(O)c4O[C@H]2[C@@H](O)C=C[C@H]3[C@H]1C5`, the ED50 with Mus musculus [1] worked out at 4.1 µmol/kg; in the experiment with Mus musculus [2], 3.3 µmol/kg.
The corresponding values for `O[C@H]1CC[C@H]2[C@H]3Cc4cccc5c4[C@@]2(CCN3)[C@H]1O5` are 67.8 µmol/kg and 45.3 µmol/kg.
The corresponding values for `CN1CC[C@]23c4c5cccc4O[C@H]2[C@@H](O)CC[C@H]3[C@H]1C5` are 8.1 µmol/kg and 4.2 µmol/kg.
For `CN1CC[C@]23c4c5cccc4O[C@H]2C(=O)CC[C@H]3[C@H]1C5`, in that order: 2.8 µmol/kg and 1.8 µmol/kg.
Take `C=CCN1CC[C@]23c4c5cccc4O[C@H]2[C@@H](O)CC[C@H]3[C@H]1C5`: the ED50 in the experiment on Mus musculus [1] was determined as 59.9 µmol/kg; in the experiment on Mus musculus [2] it was 44 µmol/kg.
In the case of `c1cc2c3c(c1)O[C@H]1CCC[C@H]4[C@@H](C2)NCC[C@]314`, the median effective dose (ED50) worked out at 4.4 µmol/kg in the experiment with Mus musculus [1] and 1.3 µmol/kg in the experiment with Mus musculus [2].
On to `CN1CC[C@]23c4c5ccc(O)c4O[C@H]2CCC[C@H]3[C@H]1C5`, for which, in the experiment on Mus musculus [2], the 50% effective dose (ED50) amounted to 0.14 µmol/kg.
The same measure, in the same setting: in the case of `CN1CC[C@]23c4c5ccc(O)c4O[C@H]2[C@@H](O)CC[C@H]3[C@H]1C5` it was 2.5 µmol/kg.
In the case of `CN1CC[C@]23c4c5cccc4O[C@H]2[C@@H](O)C=C[C@H]3[C@H]1C5`, the 50% effective dose (ED50) amounted to 30.9 µmol/kg with Mus musculus [1] and 8.6 µmol/kg with Mus musculus [2].
In the experiment with Mus musculus [2], `CN1CCC23CCCCC2C1Cc1ccccc13` (racemic) showed a 50% effective dose (ED50) of 16.5 µmol/kg.
With `CN1CC[C@]23c4c5ccc(O)c4O[C@H]2C(=O)CC[C@H]3[C@H]1C5` [HYDROMORPHONE HYDROCHLORIDE], the 50% effective dose (ED50) was determined as 0.7 µmol/kg with Mus musculus [1] and 0.4 µmol/kg in the experiment with Mus musculus [2].
For `C=CCN1CC[C@]23c4c5ccc(O)c4O[C@H]2[C@@H](O)C=C[C@H]3[C@H]1C5` [NALORPHINE HYDROCHLORIDE], in that order: 13.8 µmol/kg and 105 µmol/kg.

As a reminder, the ED50 is the dose that gives a 50% effect, or the effect in half of the subjects. A low value points to greater potency.
